Assays:
A2BR = system: A2BR; parameters: method as in PMID 29106905, PMID 19569717; settings: cited from earlier work
NLuc‐A2BR = molecular target: T1, NLuc‐A2BR (Homo sapiens, UniProt P29275); experiment: NanoBRET competition binding against 50 nM PSB603‐BY630 in HEK293G cells expressing NLuc‐A2BR
T1 construct: expressed in transfected cells
T1 sequence (P29275 1-332): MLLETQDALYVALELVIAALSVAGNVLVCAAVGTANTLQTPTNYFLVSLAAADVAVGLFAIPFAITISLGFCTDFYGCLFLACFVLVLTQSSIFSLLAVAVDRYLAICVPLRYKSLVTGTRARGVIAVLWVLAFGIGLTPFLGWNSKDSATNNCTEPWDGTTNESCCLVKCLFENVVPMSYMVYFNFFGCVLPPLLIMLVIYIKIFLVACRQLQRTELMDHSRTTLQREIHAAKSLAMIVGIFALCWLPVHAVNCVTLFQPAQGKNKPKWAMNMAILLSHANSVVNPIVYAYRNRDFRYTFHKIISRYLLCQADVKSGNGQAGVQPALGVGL
Experimental: Saturation and competition binding assays were performed as previously described.[36] Briefly, cells were seeded in 96‐well white clear‐bottomed Greiner plates pre‐treated with 10 μg/mL poly‐D‐lysine (Sigma‐Aldrich, Missouri USA) at a density of 30 000–35 000 cells per well in DMEM supplemented with 10% FBS. […] The NanoLuc substrate, furimazine (Promega Corporation, Wisconsin, USA), was then added to each well (1:400 dilution) and the plate was incubated for 10 min in the dark at 37°C. The resulting bioluminescence resonance energy transfer (BRET) was measured using a PHERAstar FS plate reader (BMG Labtech) at 37°C. For each well, filtered light emissions at 460 nm (80 nm bandpass) and >610 nm (longpass) for the BODIPY630/650 ligand were simultaneously measured. BRET ratios were calculated by dividing the 610 nm emission by the 460 nm emission. All conditions were performed in 2–6 replicates within each plate. For kinetic experiments, cells were preincubated for 10 min with 1:400 dilution of furimazine prior to addition of 200 nM PSB603‐BY630 and BRET ratios determined every 0.5 min.
The IC 50 values were then used to calculate the K i values using the Cheng‐Prussoff equation: Ki=IC50/1+L/KD where [L] is the concentration of PSB603‐BY630 in nM, and K D is the dissociation constant of that fluorescent ligand in nM.

[1] = molecular target: T2, endogenous A2BR in human monocyte‐derived M1‐like macrophages (Homo sapiens, UniProt P29275); experiment: Flow cytometry of PSB603‐BY630 binding to M1‐like macrophages; type: cell-based; settings: 100 nM PSB603‐BY630, 10 μM unlabelled PSB603, six donors, p <.01 paired t‐test
T2 construct: monitor endogenous A2BR expression on human macrophages; endogenous in cells; host or cells: M1-like (GMCSF) and M2-like (MCSF) macrophages differentiated from CD14+ monocytes of healthy human donors
T2 sequence (P29275 1-332): T1 sequence (P29275 1-332)
Experimental: (§1) One hundred and fifty milliliter peripheral blood was obtained in heparinised 60 mL syringes by venepuncture from healthy volunteers after written informed consent (Ethics from University of Nottingham Ethics committee, ref 161–1711). Peripheral blood mononuclear cells (PBMC) were immediately separated by density centrifugation over Lymphoprep (Stemcell, UK) at 800g for 25 min on low brake followed by washes in endotoxin‐free phosphate‐buffered saline (PBS, Sigma). PBMC were washed in MACS buffer (PBS + 1% fetal calf serum (FCS, Sigma) + […] (Sigma)) then incubated with CD14 microbeads (Miltenyi Biotech) and monocytes isolated by magnetic separation on an AutoMACS Pro cell separator (Miltenyi). Cell purity was routinely assessed by flow cytometry (>95%). […]
(§2) Harvested macrophages were resuspended in staining buffer (HBSS [Sigma] supplemented with 2.5% v/v FCS and Ethylenediaminetetraacetic acid‐ EDTA 5 mM) at 2 × 10^6 cells/mL. […] BODIPY 630/650 fluorescence was measured on a MACSQuant 10 Flow Cytometer (Miltenyi) immediately after incubation (>5 × 10^4 events acquired). Flow cytometry data were analyzed using FlowJo software v10. […]

[2] = molecular target: T3, endogenous A2BR in human monocyte‐derived M2‐like macrophages (Homo sapiens, UniProt P29275); experiment: Flow cytometry of PSB603‐BY630 binding to M2‐like macrophages; type: cell-based; settings: 100 nM PSB603‐BY630, 10 μM unlabelled PSB603, six donors, p <.01 paired t‐test
T3 construct: monitor endogenous A2BR expression on human macrophages; endogenous in cells; host or cells: M1-like (GMCSF) and M2-like (MCSF) macrophages differentiated from CD14+ monocytes of healthy human donors
T3 sequence (P29275 1-332): T1 sequence (P29275 1-332)
Experimental: as §1, §2

SMILES: CCCn1c(=O)[nH]c2nc(-c3ccc(S(=O)(=O)N4CCN(c5ccc(Cl)cc5)CC4)cc3)[nH]c2c1=O [PSB603, 8‐[4‐[4‐(4‐Chlorophenzyl)piperazide‐1‐sulfonylphenyl]]‐1‐propylxanthine]
- affinity for A2BR (A2BR): sub‐nanomolar
- Appararent Log K i (NLuc‐A2BR): −9.12 ± 0.08
- Log IC50 (NLuc‐A2BR): −8.55 ± 0.08
- inhibition of PSB603‐BY630 binding (median fluorescence intensity) [1]: significant inhibiton
- inhibition of PSB603‐BY630 binding (median fluorescence intensity) [2]: significant inhibiton

— paper PMC11191602, “A novel and selective fluorescent ligand for the study of adenosine A2B receptors” (Pharmacology Research & Perspectives, 2024)
